{
  "source": "patent US20120244567A1",
  "about": "“HUMAN EMBRYONIC STEM CELLS FOR HIGH THROUGHOUT DRUG SCREENING” (BUCK INSTITUTE FOR RESEARCH ON AGING, priority 2009, published 2012)",
  "test_system": "NSCs",
  "settings": "enriched in treated NSCs",
  "description": "RNAs isolated from NSCs and neurons with and without drug treatments were hybridized to Illumina HumanRef-8 BeadChip (Illumina, Inc., San Diego, Calif., performed by Microarray core facility at the Burnham Institute for Medical Research). The Illumina array data were normalized by the quantile method, and then transformed log 2 ratio values for a zero mean for expression values of each gene across all samples. The statistical and bioinformatics analyses were conducted by using R and the bioconductor package (www.bioconductor.org). The gene set enrichment analysis was conducted using the GSEA software (www.broad.mit.edu/gsea).\nThe comparative results are then measured by a non-parametric, running sum statistic termed the enrichment score. The enrichment score significance is assessed by 1,000 permutation tests to compute the enrichment p-value.",
  "note": "Counter-ions that a name gives are not always drawn.",
  "data": [
    {"molecule": "CCCCc1oc2ccccc2c1C(=O)c1cc(I)c(OCCN(CC)CC)c(I)c1", "note": "[Amiodarone Hydrochloride]", "values": [
      {"measurement": "Nes: Endopeptidase Activity", "value": 1.466},
      {"measurement": "Nes: Enzyme Binding", "value": 0.9684},
      {"measurement": "Nes: Enzyme Inhibitor Activity", "value": 1.362},
      {"measurement": "Nes: Enzyme Regulator Activity", "value": 1.305},
      {"measurement": "Nes: Exonuclease Activity", "value": 1.423},
      {"measurement": "Nes: Gated Channel Activity", "value": 0.8726},
      {"measurement": "Nes: General Rna Polymerase Ii Transcription Factor Activity", "value": 0.772},
      {"measurement": "Nes: Growth Factor Binding", "value": 1.135},
      {"measurement": "Nes: Gtpase Activator Activity", "value": 1.186},
      {"measurement": "Nes: Gtpase Binding", "value": 0.9586},
      {"measurement": "Nes: Gtpase Regulator Activity", "value": 1.412},
      {"measurement": "Nes: Guanyl Nucleotide Exchange Factor Activity", "value": 1.287},
      {"measurement": "Nes: Hematopoietin Interferon Class D200 Domain Cytokine Receptor Activity", "value": 0.7947},
      {"measurement": "Nes: Hormone Receptor Binding", "value": 0.621},
      {"measurement": "Nes: Hydro Lyase Activity", "value": 0.5564},
      {"measurement": "Nes: Hydrolase Activity Acting On Ester Bonds", "value": 1.181},
      {"measurement": "Nes: Hydrolase Activity Acting On Glycosyl Bonds", "value": 1.049},
      {"measurement": "Nes: Hydrolase Activity Hydrolyzing O Glycosyl Compounds", "value": 1.219},
      {"measurement": "Nes: Inorganic Cation Transmembrane Transporter Activity", "value": 0.6802},
      {"measurement": "Nes: Ion Channel Activity", "value": 1.255},
      {"measurement": "Nes: Ion Transmembrane Transporter Activity", "value": 1.185},
      {"measurement": "Nes: Isomerase Activity", "value": 1.154},
      {"measurement": "Nes: Kinase Binding", "value": 0.6301},
      {"measurement": "Nes: Ligase Activity", "value": 0.4673},
      {"measurement": "Nes: Ligase Activity Forming Carbon Nitrogen Bonds", "value": 0.6937},
      {"measurement": "Nes: Lyase Activity", "value": 1.018},
      {"measurement": "Nes: Metal Ion Transmembrane Transporter Activity", "value": 1.036},
      {"measurement": "Nes: Methyltransferase Activity", "value": 0.9044},
      {"measurement": "Nes: Molecular Adaptor Activity", "value": 1.189},
      {"measurement": "Nes: Monovalent Inorganic Cation Transmembrane Transporter Activity", "value": 0.7857},
      {"measurement": "Nes: Motor Activity", "value": 1.105},
      {"measurement": "Nes: Mrna Binding", "value": 1.006},
      {"measurement": "Nes: Nuclease Activity", "value": 0.9393},
      {"measurement": "Nes: Nucleotide Binding", "value": 0.8932},
      {"measurement": "Nes: Oxidoreductase Activity", "value": 0.9865},
      {"measurement": "Nes: Oxidoreductase Activity Acting On Ch Oh Group Of Donors", "value": 0.8656},
      {"measurement": "Nes: Oxidoreductase Activity Go 0016705", "value": 1.545},
      {"measurement": "Nes: Peptidase Activity", "value": 1.4},
      {"measurement": "Nes: Phosphatase Regulator Activity", "value": 0.456},
      {"measurement": "Nes: Phosphoprotein Phosphatase Activity", "value": 1.51},
      {"measurement": "Nes: Phosphoric Diester Hydrolase Activity", "value": 1.244},
      {"measurement": "Nes: Phosphoric Ester Hydrolase Activity", "value": 1.31},
      {"measurement": "Nes: Phosphoric Monoester Hydrolase Activity", "value": 1.31},
      {"measurement": "Nes: Protease Inhibitor Activity", "value": 1.558},
      {"measurement": "Nes: Protein C Terminus Binding", "value": 0.6675},
      {"measurement": "Nes: Protein Complex Binding", "value": 1.312},
      {"measurement": "Nes: Protein Domain Specific Binding", "value": 0.8643},
      {"measurement": "Nes: Protein Kinase Activity", "value": 0.8772},
      {"measurement": "Nes: Protein Kinase Binding", "value": 0.7501},
      {"measurement": "Nes: Protein Serine Threonine Kinase Activity", "value": 0.8269},
      {"measurement": "Nes: Protein Serine Threonine Phosphatase Activity", "value": 0.4942},
      {"measurement": "Nes: Protein Tyrosine Kinase Activity", "value": 0.7818},
      {"measurement": "Nes: Protein Tyrosine Phosphatase Activity", "value": 1.461},
      {"measurement": "Nes: Purine Nucleotide Binding", "value": 0.8873},
      {"measurement": "Nes: Purine Ribonucleotide Binding", "value": 0.9034},
      {"measurement": "Nes: Ras Gtpase Activator Activity", "value": 0.9812},
      {"measurement": "Nes: Receptor Signaling Protein Activity", "value": 0.7803},
      {"measurement": "Nes: Rho Gtpase Activator Activity", "value": 0.9664},
      {"measurement": "Nes: Ribonuclease Activity", "value": 0.4876},
      {"measurement": "Nes: Rna Splicing Factor Activity Transesterification Mechanism", "value": 0.9542},
      {"measurement": "Nes: S Adenosylmethionine Dependent Methyltransferase Activity", "value": 0.9978},
      {"measurement": "Nes: Secondary Active Transmembrane Transporter Activity", "value": 1.221},
      {"measurement": "Nes: Sequence Specific Dna Binding", "value": 0.8244},
      {"measurement": "Nes: Serine Hydrolase Activity", "value": 1.672},
      {"measurement": "Nes: Serine Type Peptidase Activity", "value": 1.65},
      {"measurement": "Nes: Sh3 Sh2 Adaptor Activity", "value": 1.235},
      {"measurement": "Nes: Single Stranded Dna Binding", "value": 0.9015},
      {"measurement": "Nes: Small Conjugating Protein Ligase Activity", "value": 0.717},
      {"measurement": "Nes: Small Gtpase Binding", "value": 0.9179},
      {"measurement": "Nes: Small Gtpase Regulator Activity", "value": 1.109},
      {"measurement": "Nes: Small Protein Conjugating Enzyme Activity", "value": 0.7314},
      {"measurement": "Nes: Specific Rna Polymerase Ii Transcription Factor Activity", "value": 1.539},
      {"measurement": "Nes: Structural Constituent Of Cytoskeleton", "value": 1.041},
      {"measurement": "Nes: Structural Constituent Of Muscle", "value": 1.106},
      {"measurement": "Nes: Structural Molecule Activity", "value": 0.7432},
      {"measurement": "Nes: Structure Specific Dna Binding", "value": 0.7614},
      {"measurement": "Nes: Substrate Specific Channel Activity", "value": 1.3},
      {"measurement": "Nes: Substrate Specific Transmembrane Transporter Activity", "value": 1.04},
      {"measurement": "Nes: Substrate Specific Transporter Activity", "value": 0.9263},
      {"measurement": "Nes: Transcription Activator Activity", "value": 0.7812},
      {"measurement": "Nes: Transcription Coactivator Activity", "value": 0.5439},
      {"measurement": "Nes: Transcription Cofactor Activity", "value": 1.217},
      {"measurement": "Nes: Transcription Corepressor Activity", "value": 1.692},
      {"measurement": "Nes: Transcription Factor Activity", "value": 1.217},
      {"measurement": "Nes: Transcription Factor Binding", "value": 1.248},
      {"measurement": "Nes: Transcription Repressor Activity", "value": 1.653},
      {"measurement": "Nes: Transferase Activity Transferring Alkyl Or Aryl Other Than Methyl Groups", "value": 0.6606},
      {"measurement": "Nes: Transferase Activity Transferring Glycosyl Groups", "value": 0.6701},
      {"measurement": "Nes: Transferase Activity Transferring Groups Other Than Amino Acyl Groups", "value": 0.6753},
      {"measurement": "Nes: Transferase Activity Transferring One Carbon Groups", "value": 0.7951},
      {"measurement": "Nes: Transferase Activity Transferring Sulfur Containing Groups", "value": 0.8435},
      {"measurement": "Nes: Transition Metal Ion Binding", "value": 1.037},
      {"measurement": "Nes: Translation Factor Activity Nucleic Acid Binding", "value": 0.81},
      {"measurement": "Nes: Translation Initiation Factor Activity", "value": 0.4449},
      {"measurement": "Nes: Translation Regulator Activity", "value": 0.9216},
      {"measurement": "Nes: Transmembrane Receptor Protein Kinase Activity", "value": 0.7564},
      {"measurement": "Nes: Transmembrane Receptor Protein Tyrosine Kinase Activity", "value": 0.9533},
      {"measurement": "Nes: Transmembrane Transporter Activity", "value": 1.011},
      {"measurement": "Nes: Ubiquitin Protein Ligase Activity", "value": 0.7536},
      {"measurement": "Nes: Zinc Ion Binding", "value": 0.9797}
    ]}
  ]
}
